How the values were obtained:
recombinant human PTP1B [1] = target: T1, recombinant human PTP1B (Homo sapiens, UniProt P18031); assay: Microplate-based PTP1B inhibition assay (pNPP substrate); assay type: biochemical; conditions: n = 3; IC50 ± standard error; pH 7, 25 °C, 0.5 mM pNPP
T1 construct: purchased Enzo Life Sciences Inc. BML-SE332-0050
T1 sequence (P18031 1-322 limits assumed): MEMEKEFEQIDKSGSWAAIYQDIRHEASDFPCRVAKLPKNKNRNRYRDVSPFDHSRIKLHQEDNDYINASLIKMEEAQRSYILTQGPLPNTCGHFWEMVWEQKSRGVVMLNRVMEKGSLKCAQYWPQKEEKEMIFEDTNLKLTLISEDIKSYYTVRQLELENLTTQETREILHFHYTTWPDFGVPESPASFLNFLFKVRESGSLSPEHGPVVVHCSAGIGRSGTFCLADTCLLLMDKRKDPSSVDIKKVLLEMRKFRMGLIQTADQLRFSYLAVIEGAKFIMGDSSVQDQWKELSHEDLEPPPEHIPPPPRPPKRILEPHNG
Description: p-Nitrophenyl phosphate (pNPP), dimethyl sulfoxide (DMSO), sodium phosphate monobasic dihydrate, sodium phosphate dibasic, sodium hydroxide, sodium azide, tris-(hydroxymethyl)-aminomethane (Tris), bis-(2-hydroxyethyl)-imino-tris-(hydroxymethylmethane) (Bis-Tris), N,N,N′,N′-ethylenediaminetetraacetate (EDTA), dithiothreitol (DTT), methanol-d4, and HPLC grade acetonitrile were purchased from Sigma-Aldrich (St. Louis, MO, USA), recombinant human PTP1B (BML-SE332-0050, EC 3.1.3.48) was purchased from Enzo Life Sciences Inc. (Farmingdale, NY, USA), and formic acid was purchased from Merck (Darmstadt, Germany). Water was purified by deionization and filtration through a 0.22 μm membrane (Millipore, Billerica, MA, USA).
PTP1B inhibition assaying of the defatted extract, fraction F1 (from preparative HPLC: see Section 3.5) and microfractions (obtained as described below in Section 3.4) were performed according to the microplate-based method previously described. In brief, all solutions were prepared in a buffer of 50 mM Tris and 50 mM Bis-Tris containing 100 mM NaCL and adjusted to pH 7. […] The microplate was incubated for 10 min at 25 °C, and the reaction was started by addition of 0.001 μg/μL PTP1B stock solution (50 μL) in phosphate buffer (to give a final concentration of 0.05 µg PTP1B per well). […] For each microplate, blank samples (negative controls) containing buffer, enzyme, EDTA, DTT, and pNPP were measured in triplicate, and for the dilution series, RK682 was included as a reference inhibitory compound (i.e., positive control). The percentage inhibition of PTP1B was calculated according to the following equation: % inhibition=(1−SLOPEsample/SLOPEblank)×100
(§1) The high-resolution PTP1B biochromatograms (high-resolution PTP1B inhibition profiles) were constructed by plotting the inhibition values against the chromatographic retention time. Dose-response curves and IC50 values for dilution series of the crude extract and pure compounds were obtained using GraFit software, version 5.0.11 (Erithacus Software Limited, West Sussex, UK). For PTP1B IC50 values, the crude extract and isolated compounds were assessed by using the standard assay conditions described above. Nine dilutions were assessed in triplicates and percentage inhibition calculated as mean ± standard deviation in Microsoft Excel according to the above equation. The results were imported and used for assessing dose-response curves and IC50 values in GraFit software, version 5.0.11 (Erithacus Software Limited). Data were fitted to the equation f(x)=min+max−min/1+(x/IC50)^slope where min is the background, max–min is the y-range, x is the concentration, and slope is the Hill slope.

recombinant human PTP1B [2] = target: T1, recombinant human PTP1B; assay: High-resolution PTP1B inhibition profiling (biochromatogram of HPLC microfractions); assay type: biochemical; conditions: HPLC microfractions of crude ethyl acetate extract, Figure 1; result in words
Description: PTP1B inhibition assaying of the defatted extract, fraction F1 (from preparative HPLC: see Section 3.5) and microfractions (obtained as described below in Section 3.4) were performed according to the microplate-based method previously described. In brief, all solutions were prepared in a buffer of 50 mM Tris and 50 mM Bis-Tris containing 100 mM NaCL and adjusted to pH 7. To each well containing microfractions or dilution series of pure compounds were added 18 µL of DMSO and 52 µL of 3.4 mM EDTA in Bis-Tris buffer (to give final well concentrations of 10% DMSO and 1 mM EDTA) as well as 60 µL of a Bis-Tris buffer solution containing 1.5 mM pNPP and 6 mM DTT in phosphate buffer (to give final well concentrations of 0.5 mM pNPP and 2 mM DTT). The microplate was incubated for 10 min at 25 °C, and the reaction was started by addition of 0.001 μg/μL PTP1B stock solution (50 μL) in phosphate buffer (to give a final concentration of 0.05 µg PTP1B per well). The reaction was monitored at 405 nm every 30 s for 10 min to yield the enzyme activity (expressed as cleavage rate AU/s) by using a Thermo Scientific Multiskan FC microplate photometer (Thermo Scientific, Waltham, MA, USA). For each microplate, blank samples (negative controls) containing buffer, enzyme, EDTA, DTT, and pNPP were measured in triplicate, and for the dilution series, RK682 was included as a reference inhibitory compound (i.e., positive control). The percentage inhibition of PTP1B was calculated according to the following equation: % inhibition=(1−SLOPEsample/SLOPEblank)×100
as §1, with “slope. Results are reported as IC50 values ± standard error.” for “slope.”
Microfractionation of the extract of M. albicans for high-resolution PTP1B inhibition profiling was conducted using an Agilent 1200 system (Santa Clara, CA, USA—HPLC system 1) comprising a G1311A quaternary pump, a G1322A degasser, a G1316A thermostatted column compartment, a G1315C photodiode array detector, a G1367C high-performance autosampler, and a G1364C fraction collector, controlled by Agilent ChemStation version B.03.02 software. Separations were performed by using a reversed-phase Phenomenex Luna C18(2) column (150 mm × 4.6 mm i.d., 3 μm particle size, 100 Å pore size) (Phenomenex, Torrance, CA, USA). A binary elution system of water: acetonitrile (95:5, solvent A) and acetonitrile: water (95:5, solvent B), both acidified with 0.1% formic acid, was used with a flow rate of 0.8 mL/min. […]

PTP1B = test system: PTP1B; parameters: method as in PMID 23704520; conditions: read-out: previously reported IC50-value (PTP1B); cited from earlier work

SMILES	IC50 (recombinant human PTP1B [1]) [nM]	PTP1B inhibitory activity in high-resolution inhibition profile of crude extract (recombinant human PTP1B [2])	IC50 (PTP1B) [nM]
CC1(C)CC[C@]2(C(=O)O)CC[C@]3(C)C(=CC[C@@H]4[C@@]5(C)CC[C@@H](O)C(C)(C)[C@@H]5[C@H](O)C[C@]43C)[C@@H]2C1 [Compound 14, 3-epi-sumaresinolic acid]	2870 ± 400	–	–
CC1(C)CC[C@]2(C(=O)O)CC[C@]3(C)C(=CC[C@@H]4[C@@]5(C)CC[C@H](O)C(C)(C)[C@@H]5[C@H](O)C[C@]43C)[C@@H]2C1 [Compound 15, Sumaresinolic acid]	1840 ± 300	–	–
C[C@@H]1O[C@@H](Oc2c(-c3ccc(O)c(O)c3)oc3cc(O)cc(O)c3c2=O)[C@H](OC(=O)c2cc(O)c(O)c(O)c2)[C@H](O)[C@H]1O [Compound 5, quercetin 3-O-(2″-galloyl)-α-L-rhamnopyranoside]	–	PTP1B inhibitors	–
O=c1c(O[C@@H]2OC[C@H](O)[C@H](O)[C@H]2O)c(-c2ccc(O)cc2)oc2cc(O)cc(O)c12 [Compound 8, kaempferol 3-O-α-L-arabinopyranoside]	–	PTP1B inhibitors	–
O=C(/C=C/c1ccc(O)c(O)c1)O[C@@H]1O[C@H](COC(=O)c2cc(O)c(O)c(O)c2)[C@@H](OC(=O)c2cc(O)c(O)c(O)c2)[C@H](O)[C@H]1O [Compound 2, 1-O-(E)-caffeoyl-4,6-di-O-galloyl-β-D-glucopyranose]	–	PTP1B inhibitors	–
CC1(C)CC[C@]2(C(=O)O)CC[C@]3(C)C(=CC[C@@H]4[C@@]5(C)C[C@@H](O)[C@H](O)C(C)(C)[C@@H]5CC[C@]43C)[C@@H]2C1 [Compound 13, Maslinic acid]	3210 ± 800	–	5930
COc1c(O)cc(-c2oc3cc(O)cc(O)c3c(=O)c2O[C@@H]2O[C@@H](C)[C@H](O)[C@@H](O)[C@H]2O)cc1O [Compound 6, mearnsetin 3-O-α-L-rhamnopyranoside]	–	PTP1B inhibitors	–
CC1C(C(=O)O)CCC2(C)CCC3(C)C(=CCC4C5(C)CC(O)C(OC(=O)C=Cc6ccc(O)cc6)C(C)(C)C5CCC43C)C12 (stereo not drawn) [Compound 18, 3-O-trans-p-coumaroyl-2α-hydroxydulcioic acid]	1600 ± 500	–	–
C[C@@H]1O[C@@H](Oc2c(-c3cc(O)c(O)c(O)c3)oc3cc(O)cc(O)c3c2=O)[C@H](O)[C@H](O)[C@H]1O [Compound 3, myricetin 3-O-α-L-rhamnopyranoside]	–	PTP1B inhibitors	–
CC1(C)CC[C@]2(C(=O)O)CC[C@]3(C)C(=CC[C@@H]4[C@@]5(C)C[C@@H](O)[C@H](OC(=O)/C=C/c6ccc(O)cc6)C(C)(C)[C@@H]5CC[C@]43C)[C@@H]2C1 [Compound 17, 3-O-trans-p-coumaroyl-maslinic acid]	1080 ± 300	–	–
CC1(C)CC[C@]2(C(=O)O)CC[C@]3(C)C(=CC[C@@H]4[C@@]5(C)C[C@@H](O)[C@H](OC(=O)/C=C\c6ccc(O)cc6)C(C)(C)[C@@H]5CC[C@]43C)[C@@H]2C1 [Compound 16, 3-O-cis-p-coumaroyl-maslinic acid]	460 ± 70	–	–

— publication PMC6100288 (Molecules : A Journal of Synthetic Chemistry and Natural …, 2018)
